This passage reports remaining activity results from publication PMC8286840, “Identifying SARS-CoV-2 antiviral compounds by screening for small molecule inhibitors of Nsp3 papain-like protease” (Biochemical Journal, 2021).

The structures appear in SMILES notation. Counter-ions that a name gives are not always drawn. Like-named read-outs stand apart in the source and are kept apart here. Where a SMILES comes first, the peptide text is derived from it.

Experiment [1] concerns the target T1, SARS-CoV-2 PLpro (nsp3 1564–1878) (Severe acute respiratory syndrome coronavirus 2, UniProt P0DTD1). The experiment in a line: biochemical. More on the design: FRET-quenched peptide (Pro3) cleavage by PLpro, 10 min pre-incubation, slope over 20 min, normalised to no-compound control. The conditions noted are these: low concentration screen, read-out: % of control remaining.

For experiment [2], the target named is T1, SARS-CoV-2 PLpro (nsp3 1564–1878). In words: biochemical. The arrangement: FRET-quenched peptide (Pro3) cleavage by PLpro, 10 min pre-incubation, slope over 20 min, normalised to no-compound control. The settings on record: high concentration screen, read-out: % of control remaining.

As to `CCOC(=O)c1[nH]c2cc(Cl)ccc2c1C(C(=O)NC(C)(C)C)N(C=O)Cc1ccc(Cl)cc1` (stereo not drawn) [YH239-EE], in experiment [1] (Well no.=6392), the remaining activity at 1.25 µM worked out at 98.6%. Also, in experiment [2] (Well no.=6392), the remaining activity at 3.75 µM was 97.4%.

With `CC(C)C[C@H](N)C(=O)N[C@@H](Cc1ccccc1)C(=O)O` [Leucyl-phenylalanine] (H-Leu-Phe-OH), the results for the remaining activity at 1.25 µM in experiment [1] (Well no.=6291) and in experiment [1] (Well no.=8754) were 104% and 87.2%, respectively. Besides, the remaining activity at 3.75 µM in experiment [2] (Well no.=6291) is 102%; in experiment [2] (Well no.=8754) it was 87.4%.

`CC(C)[C@H](CO)Nc1nc(Nc2cccc(Cl)c2)c2ncn(C(C)C)c2n1` [Purvalanol A]: the remaining activity at 1.25 µM in experiment [1] (Well no.=1050) came out at 86.7%; in experiment [1] (Well no.=2606), 91.1%. In addition, the remaining activity at 3.75 µM in experiment [2] (Well no.=1050) worked out at 86.5%; in experiment [2] (Well no.=2606) it was 92%.

As for `CCCCN1CCC(COC(=O)c2cc(Cl)c(N)c3c2OCCO3)CC1` [SB 204070 hydrochloride], the remaining activity at 1.25 µM in experiment [1] (Well no.=1170) was 97.3%. The remaining activity at 3.75 µM in experiment [2] (Well no.=1170) worked out at 99.4%.

For the compound `OCC1=C[C@@H](O)[C@@H]2C=CO[C@@H](O[C@@H]3O[C@H](CO)[C@@H](O)[C@H](O)[C@H]3O)[C@H]12` [Aucubin], in experiment [1] (Well no.=3162), the remaining activity at 1.25 µM was found to be 99.3%. The remaining activity at 3.75 µM in experiment [2] (Well no.=3162) was found to be 97.6%.

Take `CC(=O)/N=c1/sc(S(N)(=O)=O)nn1C` [Methazolamide]: in experiment [1] (Well no.=4686), the remaining activity at 1.25 µM is 100%. Further, the remaining activity at 3.75 µM in experiment [2] (Well no.=4686) came out at 98.7%.

`C=CCN1CC[C@]23c4c5ccc(O)c4O[C@H]2/C(=N/N=C2\CC[C@@]4(O)[C@H]6Cc7ccc(O)c8c7[C@@]4(CCN6CC=C)[C@H]2O8)CC[C@@]3(O)[C@H]1C5` [Naloxonazine]: in experiment [1] (Well no.=2062), the remaining activity at 1.25 µM came out at 101%. The remaining activity at 3.75 µM in experiment [2] (Well no.=2062) stood at 105%.

Regarding `O=Nc1c(-c2c(O)[nH]c3cc(Br)ccc23)[nH]c2ccccc12` [GSK-3 Inhibitor IX], in experiment [1] (Well no.=2466), the remaining activity at 1.25 µM turned out to be 95.8%. Moreover, in experiment [2] (Well no.=2466), the remaining activity at 3.75 µM turned out to be 98.6%.

With `O=c1cc(CN2CCOCC2)occ1OCCCCCSc1ccnc2cc(C(F)(F)F)ccc12` [EHT 1864], in experiment [1] (Well no.=8435), the remaining activity at 1.25 µM turned out to be 93.5%. Moreover, in experiment [2] (Well no.=8435), the remaining activity at 3.75 µM worked out at 90.8%.

For the compound `CCC(C)(C)C(=O)N(O)Cc1ccccc1` [RIPA-56], in experiment [1] (Well no.=6210), the remaining activity at 1.25 µM is 90.8%. Also, the remaining activity at 3.75 µM in experiment [2] (Well no.=6210) was 92.1%.

With `C[C@H]1C[C@H]2[C@@H]3CCC4=CC(=O)C=C[C@]4(C)[C@H]3C(=O)C[C@]2(C)[C@@]1(O)C(=O)CO` [Meprednisone], the remaining activity at 1.25 µM in experiment [1] (Well no.=6509) came to 101%. In addition, the remaining activity at 3.75 µM in experiment [2] (Well no.=6509) stood at 102%.

Regarding `COCCCN1CCC(NC(=O)c2cc(Cl)c(N)c3c2OCC3)CC1` [Prucalopride (succinate)], in experiment [1] (Well no.=7675), the remaining activity at 1.25 µM worked out at 100%. The remaining activity at 3.75 µM in experiment [2] (Well no.=7675) came to 103%.

Turning to `C#C[C@]1(O)CC[C@H]2[C@@H]3CCc4cc(OC)ccc4[C@H]3CC[C@@]21C` [Mestranol], in experiment [1] (Well no.=4768), the remaining activity at 1.25 µM stood at 101%. Also, in experiment [2] (Well no.=4768), the remaining activity at 3.75 µM was 102%.

For the compound `COC(=O)C1=CO[C@@H](O[C@@H]2O[C@H](CO)[C@@H](O)[C@H](O)[C@H]2O)[C@@H]2C(CO)=CC[C@H]12` [Geniposide], in experiment [1] (Well no.=5206), the remaining activity at 1.25 µM came to 102%. Also, in experiment [2] (Well no.=5206), the remaining activity at 3.75 µM was determined as 97.9%.

As to `c1cc(CN2CCCNCCNCCCNCC2)ccc1CN1CCCNCCNCCCNCC1` [Plerixafor], the remaining activity at 1.25 µM in experiment [1] (Well no.=6893) is 101%; in experiment [1] (Well no.=8356), 91.6%; in experiment [1] (Well no.=8751), 98.3%. The remaining activity at 3.75 µM in experiment [2] (Well no.=8356) is 92.1%; in experiment [2] (Well no.=8751), 99.2%.

`CC(C)COc1ccc(CNC(=O)N(Cc2ccc(F)cc2)C2CCN(C)CC2)cc1` [Pimavanserin]: in experiment [1] (Well no.=6521), the remaining activity at 1.25 µM was determined as 95%. Further, the remaining activity at 3.75 µM in experiment [2] (Well no.=6521) worked out at 95.9%.

Take `NC[C@H]1O[C@H](O[C@H]2[C@H](O)[C@@H](O[C@H]3O[C@H](CO)[C@@H](O)[C@H](N)[C@H]3O)[C@H](N)C[C@@H]2N)[C@H](O)[C@@H](O)[C@@H]1O` [Kanamycin sulfate]: the remaining activity at 1.25 µM in experiment [1] (Well no.=3428) was 97.3%. Moreover, in experiment [2] (Well no.=3428), the remaining activity at 3.75 µM was 96.2%.

Consider `N=C(N)c1ccc(N)cc1` [4-Aminobenzamidine dihydrochloride], for which, in experiment [1] (Well no.=309), the remaining activity at 1.25 µM came out at 91.8%. For the same compound, in experiment [2] (Well no.=309), the remaining activity at 3.75 µM was determined as 92.5%.

For the compound `C=CCN1CCc2c(cc(O)c(O)c2Cl)C(c2ccccc2)C1` (stereo not drawn) [SKF-82958 (hydrobromide)], in experiment [1] (Well no.=7905), the remaining activity at 1.25 µM was found to be 105%. In experiment [2] (Well no.=7905), the remaining activity at 3.75 µM stood at 101%.

As to `COc1ccccc1C(=O)O` [2-Methoxybenzoic acid], the remaining activity at 1.25 µM in experiment [1] (Well no.=6583) worked out at 103%. The remaining activity at 3.75 µM in experiment [2] (Well no.=6583) was 101%.

As for `CSC(=S)NCc1c[nH]c2ccccc12` [Brassinin], the remaining activity at 1.25 µM in experiment [1] (Well no.=3801) worked out at 101%. Besides, the remaining activity at 3.75 µM in experiment [2] (Well no.=3801) is 101%.

In the case of `COc1cc2ncnc(Nc3cccc(Br)c3)c2cc1OC` [PD153035 HCl], the remaining activity at 1.25 µM in experiment [1] (Well no.=4627) turned out to be 104%. Further, the remaining activity at 3.75 µM in experiment [2] (Well no.=4627) was determined as 105%.

For `OCCOCCN1CCN(C(c2ccccc2)c2ccc(Cl)cc2)CC1` (stereo not drawn) [Hydroxyzine (dihydrochloride)], the remaining activity at 1.25 µM in experiment [1] (Well no.=6901) is 100%. Also, the remaining activity at 3.75 µM in experiment [2] (Well no.=6901) worked out at 98%.

`N[C@@H](Cn1cc(I)c(=O)[nH]c1=O)C(=O)O` [S-5-Iodowillardiine]: in experiment [1] (Well no.=1340), the remaining activity at 1.25 µM was 102%. In experiment [2] (Well no.=1340), the remaining activity at 3.75 µM stood at 99.5%.

Regarding `COc1cc2c(c(OC)c1OC)-c1c(cc3c(c1OC)OCO3)C[C@H](C)[C@](C)(O)C2` [Gomisin A], the remaining activity at 1.25 µM in experiment [1] (Well no.=5817) was found to be 103%. Further, the remaining activity at 3.75 µM in experiment [2] (Well no.=5817) was 104%.

As to `COc1ncnc(NS(=O)(=O)c2ccc(N)cc2)c1OC` [Sulfadoxine], the remaining activity at 1.25 µM in experiment [1] (Well no.=2287) was found to be 97%; in experiment [1] (Well no.=7358), 95.6%. Besides, the remaining activity at 3.75 µM in experiment [2] (Well no.=2287) was determined as 92.6%; in experiment [2] (Well no.=7358), 98%.

Regarding `COc1ccc(-c2coc3cc(O)ccc3c2=O)cc1` [Formononetin], the remaining activity at 1.25 µM in experiment [1] (Well no.=3611) amounted to 96.9%. Besides, the remaining activity at 3.75 µM in experiment [2] (Well no.=3611) was 96.2%.

Regarding `c1ccc(NCc2ccc(CNc3ccccn3)cc2)nc1` [WZ 811], in experiment [1] (Well no.=4843), the remaining activity at 1.25 µM came to 100%. In experiment [2] (Well no.=4843), the remaining activity at 3.75 µM was 102%.

In the case of `NC(CP(=O)(O)O)C(=O)O` (racemic), the remaining activity at 1.25 µM in experiment [1] (Well no.=303) is 99.2%. The remaining activity at 3.75 µM in experiment [2] (Well no.=303) turned out to be 100%.

For the compound `O=S(=O)(c1cccc2cnccc12)N1CCCNCC1` [HA1077], the remaining activity at 1.25 µM in experiment [1] (Well no.=1669) came out at 106%. For the same compound, the remaining activity at 3.75 µM in experiment [2] (Well no.=1669) amounted to 106%.
